US11033642B2, “Multidentate bifunctional chelating agents for radionuclide complexation in diagnostics and therapy” (UNIVERSITAT ZURICH, priority 2014, dated 2021)

Experiment: Solubility observed during complexation
Assay type: physicochemical
Protocol: Ligand II is not soluble either in 0.1 M HCl or in H2O. The complexation was carried out in MeOH using zirconium (IV) acetylacetonate [Zr(acac)4]. A mixture of ligand II (50 mg, 0.058 mmol) and Zr(acac)4 (28.3 mg, 0.058 mmol) in 15 mL MeOH was heated at reflux for 15 h with continuous stirring under N2 atmosphere. The solvent was then removed and the residue was then washed with Et2O (20 mL) and acetone (10 mL). The compound was obtained as off white solid (48 mg, 87%). The compound is it not soluble in common organic solvents including DMSO. […] Therefore due to the limited solubility NMR spectra of the compound could not be obtained. However, the formation of the complex can be confirmed using LC-MS. Elemental analysis calculated for C38H64N8O14Zr.6H2O.(CH3)2CO3C, 44.19, H, 7.42, N, 10.06. Found C, 44.11, H, 7.04, N, 10.16.

SMILES: CC(=O)N(O)CCCCCNC(=O)CCC(=O)N(O)CCCCCNC(=O)CCC(=O)N(O)CCCCCNC(=O)CCC(=O)N(O)CCCCCNC(=O)CCC(=O)O [Ligand II, 4-[5-[[4-[5-[[4-[5-[[4-[5-[acetyl(hydroxy)amino]pentylamino]-4-oxo-butanoyl]-hydroxy-amino]pentylamino]-4-oxo-butanoyl]-hydroxy-amino]pentylamino]-4-oxo-butanoyl]-hydroxy-amino]pentylamino]-4-oxo-butanoic acid]
- solubility in 0.1 M HCl (0.1 M HCl): not soluble
- solubility in H2O (H2O): not soluble
